Measurements: patent publication US11767352B2, “Histone anti-cancer vaccines” (DEUTSCHES KREBSFORSCHUNGSZENTRUM, priority 2015, dated 2023)

What was measured:
A2.DR1 mice [1] = assay: Intracellular flow cytometry of splenocyte IFNγ responses after vaccination of A2.DR1 mice; assay type: in vivo; settings: for IFNγ+ CD8+ T-cell response (intracellular flow cytometry): vaccination with peptide in Montanide, re-stimulation with K27M26-35 or K27 wt26-35, gated on CD45+ CD3+ CD8+ cells
Description: (§1) Numbers of spots to MOG35-55 as negative control were subtracted. Mean+/−s.e.m. of n=4 mice per group and representative ELISpots are shown. **p<0.01. (B/C): H3.3-peptide libraries are used to assess MHC binding epitopes in silico: MHC peptide binding predictions for H3.3 K27M (red)- and K27 wt (blue)-containing 10-mer peptides to HLA-A*02:01 using NetMHC algorithm (B) and MHC peptide binding analysis for H3.3 K27M26-35 (red) or K27 wt26-35 (blue) depending on MHC-class-I haplotype (C). Peptides with logscore affinity >0.4 are defined as potential binders. […] Re-stimulation with the vehicle DMSO served as control; gated on CD45+ CD3+ CD8+ cells.
(§2) As antigen presentation and induction of an effective immune response is critically dependent on MHC haplotype, binding affinities of K27M26-35 to the most frequent class I haplotypes were analyzed. […] Thus, anti-tumor efficacy of H3.3 K27M peptide vaccination was further investigated in a syngeneic HLA-A*02 tumor model.

A2.DR1 mice [2] = assay: Flow cytometry detection of peptide-specific CD8 T-cells with HLA-A2 dextramer after vaccination of A2.DR1 mice; assay type: in vivo; settings: splenocytes after vaccination in Montanide, gated on CD45+ CD3+ cells
Description: as §1, §2

With “RMSAPSTGGV (listed as Homo sapiens) [K27M26-35, peptide corresponding to amino acids 26-35 of K27M Histone H3.3]” the “immune response, HLA-A*02 restricted (summary statement)” value (A2.DR1 mice [1]; according to the examples) was “surprisingly strong immune response”, the “IFNγ+ CD8+ T-cell response (intracellular flow cytometry)” value (A2.DR1 mice [1]) was “induced IFNγ^+CD8^+-driven mutation-specific cytotoxic T-cell responses” and the “IFNγ+ CD8+ T-cell response (intracellular flow cytometry)” value (A2.DR1 mice [1]; listed as H3.3 K27M26-35) was “induces a mutation-specific CD8-driven T-cell response”. The “peptide-specific CD8+ T-cells detected with HLA-A2 dextramer” value (A2.DR1 mice [2]) was “could be detected directly” and the “peptide-specific CD8+ T-cells detected with HLA-A2 dextramer” value (A2.DR1 mice [2]; listed as H3.3 K27M26-35) was “CD8-positive T-cells are detected with HLA-A2 multimers”.
